Source: US11554103B2, “Compositions and methods to reduce pharmaceutical-induced toxicity” (priority 2016, dated 2023)
“Also recorded” adds a separate entry of the source.

Legend:
[1] = tested on: substantia nigra pars compacta dopaminergic neurons; test: Chronic in vivo methamphetamine administration for 28 days, stereology and striatal optical density (Example 2)
Description: Immunohistochemistry and stereological analysis: Mice were terminally anesthetized with a mixture of ketamine (50 mg/kg)/xylazine (4.5 mg/kg) and transcardially perfused with 4% paraformaldehyde, post-fixed overnight and cryoprotected in 30% sucrose/phosphate buffered saline (PBS) at 4° C. until use. Serial coronal sections (60 μm thick) were collected throughout the midbrain and striatum. To stain for tyrosine hydroxylase the anti-tyrosine hydroxylase polyclonal antibody (Millipore) 1:2000 followed by goat anti-rabbit IgG biotin conjugated antibody (Millipore) 1:500 with normal goat serum blocking solution was used; after antibody incubation and rinsing with PBS, sections were incubated with ABC Elite Kit (Vector) and processed for diaminobenzidine reaction. Slices were mounted on slides, allowed to dry overnight, dehydrated in ascending alcohol concentrations and mounted with DPX mountant (Sigma). The estimated number of tyrosine hydroxylase positive (TH^+) cells were stereologically counted as previously described.^27 Slices from DAT-Cre X Ai14 mice expressing TdTomato in dopaminergic neurons were mounted on slides, allowed to dry, and mounted with Prolong Gold antifade mountant (Invitrogen). The estimated number of tdTomato expressing cells were stereologically counted. Sampling for stereological quantification was done using an Olympus BX41 microscope with motorized stage (Applied Scientific Instrumentation) and computerized stereology software (Stereologer). The SNc was delineated in each animal in every other section and cells counted using a 40×/0.65NA Olympus lens.
Drug application in ex vivo brain slice or iPSC experiments was performed via perfusion in aCSF.

[2] = tested on: tyrosine hydroxylase positive cells in the SNc; test: Methamphetamine 14 days plus 14 days withdrawal, stereology of tyrosine hydroxylase positive cells (Example 1); assay type: in vivo, mouse
Description: (§1) Animals and treatment paradigms: Male C57/B16 and TH-mitoroGFP (Guzman et al., 2010 Nature p. 696; incorporated by reference in its entirety) mice 5-8 wks of age were used for all imaging studies. In addition to the TH-mitoroGFP transgenic line, roGFP was virally delivered into the SNc of C57/B16 mice (either targeting cytosolic or mitochondrial compartments).
Stereology: Brains were fixed with 4% paraformaldehyde and serial coronal sections ([…]) were stained for tyrosine hydroxylase. Total number of tyrosine hydroxylase positive cells were counted in the SNc with the optical fractionator method (West et al., 1991 Anat Rec p. 482; Ilijic et al., 2011 Neurobiol Dis p. 364; incorporated by reference in their entireties).

[3] = tested on: substantia nigra pars compacta dopaminergic neurons; test: Ex vivo brain slice mitochondrial oxidant stress, mito-roGFP probe, two photon microscopy; assay type: cell-based, mouse; conditions: for effect on methamphetamine-induced dendritic mitochondrial stress / effect on methamphetamine-induced axonal (terminal) mitochondrial stress: 10 μM methamphetamine; for effect on methamphetamine-induced dendritic mitochondrial stress / effect on methamphetamine-induced axonal (terminal) mitochondrial stress / effect on levodopa-induced dendritic mitochondrial stress / effect on levodopa-induced axonal (terminal) mitochondrial stress / basal mitochondrial stress, monoamine oxidase inhibitor alone: clorgyline 5 μM; for effect on levodopa-induced dendritic mitochondrial stress / effect on levodopa-induced axonal (terminal) mitochondrial stress: 100 μM levodopa; for basal mitochondrial stress, monoamine oxidase inhibitor alone: dendrites and axons; for effect on methamphetamine- and levodopa-induced mitochondrial stress: slices pre-incubated with the MAO inhibitor
Description: as §1
(§2) Two photon microscopy: Ex vivo slices of the dorsolateral striatum or SNc were prepared and redox status determined as previously described (Guzman et al., 2010 Nature p. 696; incorporated by reference in its entirety). […] The dynamic range of the probe was determined by perfusing 2 mM dithiothreitol (DTT) to fully reduce the probe and 200 μM aldrithiol to fully oxidize the probe; data presented as % relative oxidation.
Stereotaxic surgery: PCR amplified roGFP, mitoroGFP and IMSroGFP inserts were subcloned into pFB-TH-SV40pA vector between EcoR1 and SalI sites. After sequence and expression verification, pFB-TH-roGFP vectors were packaged into rAAVs using serotype 9 with titers 2.1-×10^13 viral genome copies/ml (Virovek). Mice were anesthetized using an isoflurane precision vaporizer (Smiths Medical PM) and placed in a stereotaxic frame (David Kopf Instruments) with a Cunningham adaptor (Harvard Apparatus) to maintain anesthesia delivery throughout surgery. After exposing the skull, a small hole was drilled and 350 nL of AAV9-TH-cytosolic roGFP or AAV9-TH-mitoroGFP delivered via a glass micropipette (Drummond Scientific Company) pulled on a Sutter P-97 puller. The substantia nigra pars compacta (SNc) was targeted at the following coordinates: AP: −3.05, ML: 1.20, and DV −4.30. All surgeries were performed in wild-type mice. Experiments in animals with stereotaxic delivery of AAV viral vectors were performed after at least 10 days post-op.
Ex vivo slice preparation: Mice were terminally anesthetized with a mixture of ketamine (50 mg/kg)/xylazine (4.5 mg/kg) and transcardially perfused with ice cold modified artificial cerebrospinal fluid (aCSF) containing in mM: 124.0 NaCl, 3.0 KCl, 1.0 CaCl2, 2.0 MgCl2, 26 NaHCO3, 1.0 NaH2PO4, and 16.66 glucose. Once perfused the brain was rapidly removed and either saggital or coronal slices containing the dorsolateral striatum (275 μm thick) or the SNc (220 μm thick) sectioned using a vibratome (VT1200S Leica Microsystems). Slices were transferred to a holding chamber containing normal aCSF containing in mM: 124.0 NaCl, 3.0 KCl, 2.0 CaCl2, 1.0 MgCl2, 26 NaHCO3, 1.0 NaH2PO4, and 16.66 glucose and allowed at least 30-40 minutes to recover prior to experiments. All solutions were pH 7.4, 310-320 mOsm and continually bubbled with 95% O2/5% CO2.
Ex vivo redox measurements and two photon microscopy: Oxidant stress was assessed using the redox sensitive roGFP probe targeted either to the cytosol or mitochondrial matrix as previously described.^10 Slices were transferred to a recording chamber and continuously perfused with normal aCSF at 32-34° C. Fluorescence was measured using an Ultima Laser Scanning Microscope system (Bruker) with a DODT contrast detector to provide bright-field transmission images with an Olympus 60/0.9NA lens. A two-photon laser (Chameleon Ultra II, Coherent Inc.) tuned to 920 nm was used to excite roGFP. Time series image acquisitions of the roGFP probe were obtained with 60 frames obtained over ˜20 seconds with 0.195 μm×0.195 μm pixels and 10-12 μsec dwell times. The dynamic range of the probe was determined with 2 mM dithiothreitol, a reducing agent, and 200 μM aldrithiol, an oxidizing agent, which were sequentially perfused and t-series acquired with each to determine the maximal and minimal fluorescence intensity. Test measurements were calculated as relative oxidation. T-series were analyzed offline and fluorescence measurements in multiple regions of interest evaluated with background subtracted.^10 Final data is presented as percent of control (aCSF perfusion).

[4] = tested on: substantia nigra pars compacta dopaminergic neurons; test: Ex vivo brain slice cytosolic oxidant stress, cyto-roGFP probe, two photon microscopy; assay type: cell-based, mouse; conditions: bath application of 20 μM menadione
Description: as §1
as §2, with “oxidation. […]” for “oxidation.”
Ex vivo redox measurements and two photon microscopy: Oxidant stress was assessed using the redox sensitive roGFP probe targeted either to the cytosol or mitochondrial matrix as previously described.^10 Slices were transferred to a recording chamber and continuously perfused with normal aCSF at 32-34° C. Fluorescence was measured using an Ultima Laser Scanning Microscope system (Bruker) with a DODT contrast detector to provide bright-field transmission images with an Olympus 60/0.9NA lens. […] Test measurements were calculated as relative oxidation. […]

[5] = tested on: human iPSC-derived dopamine neurons; test: iPSC redox measurements (roGFP, one photon microscopy); assay type: cell-based; conditions: for axonal mitochondrial stress in the intermembrane space: 100 μM levodopa vs control, IMS-roGFP
Excerpt: Human iPSC culture and neural differentiation: The iPSC line was generated from skin fibroblasts of a healthy individual through retroviral expression of OCT4, SOX2, cMYC, KLF4 and previously clinically characterized.^23-25 Differentiation of iPSCs into midbrain dopaminergic neurons was done according to published protocols.^26 To help control neuralization variability, cells were passaged en bloc (size of 1-2 mm) between days 11 and 14, followed by plating onto poly-d-lysine (PDL)/laminin coated 10 cm dishes. Between days 25 and 30, neural blocks were passed by accutase treatment onto PDL/laminin coated culture dishes. Neuralization growth factors were withdrawn at day 40 and neurons were maintained in Neurobasal media (Life Technologies) containing Neurocult SM1 (Stemcell technologies).
iPSC redox measurements and one photon microscopy: Human iPSC-derived dopaminergic neurons were grown on 12 mm glass coverslips and imaged between 75 and 88 days post-differentiation. Two to four days before experimentation, dopaminergic neurons were infected with viral vectors targeting roGFP expression to mitochondrial matrix (AAV9-TH-mitoroGFP), mitochondrial intermembrane space (AAV9-TH-IMSroGFP),^17 or the cytosol (AAV9-TH-cytoroGFP)^7. Cultures were transferred to an imaging chamber mounted on an inverted epifluorescence microscope (Nikon TE300) with a 40×/1.35NA oil-immersion objective. The imaging chamber was superfused with aCSF at a flow rate of 1 ml/min. Imaging experiments were carried out at 31-33° C. Cells were illuminated by Polychrome V (TILL Photonics) and emissions were captured with a cooled CCD camera (Hamamatsu ImagEM) and Slidebook imaging software (Intelligent Imaging Innovations). Regions of interests in the dendrites or axon were selected for image analysis. […] Afterwards, neurons were perfused with 2 mM dithiothreitol for 20 min and then 100 μM aldrithiol for 20 min to obtain full roGFP dynamic range.^7

SNc dopaminergic neurons = test: Pacemaking frequency in ex vivo slices; assay type: cell-based, mouse; conditions: 10 μM methamphetamine
[6] = 1 mg/kg rasagiline pretreatment, 5 mg/kg methamphetamine
[7] = rasagiline 10 μM, listed as rasagaline
[8] = 5 mg/kg methamphetamine, 28 consecutive days

## C#CCN[C@@H]1CCc2ccccc21 [rasagiline]
[1]; 1 mg/kg rasagiline 30 min pretreatment, 5 mg/kg methamphetamine
  effect on methamphetamine-induced loss of SNc neurons, Dat-Cre X Ai14 mice: significantly reduced degeneration in both the striatum and SNc; also recorded: prevented
[1]; [6]
  effect on methamphetamine-induced loss of SNc axons in the striatum: significantly reduced degeneration in both the striatum and SNc; also recorded: prevented
  effect on methamphetamine-induced loss of TH+ neurons: prevented
[2]; 1 mg/kg rasagiline, 30 min pretreatment, 5 mg/kg methamphetamine 14 days
  effect on methamphetamine-induced loss of TH+ cells: prevented meth-induced loss of TH+ cells
[3]; 10 μM d-amphetamine, rasagiline 10 μM
  effect on d-amphetamine-induced axonal mitochondrial stress: prevented
[3]; rasagiline 10 μM
  effect on methamphetamine-induced dendritic mitochondrial stress: prevented
  effect on methamphetamine-induced axonal (terminal) mitochondrial stress: attenuated
  effect on levodopa-induced dendritic mitochondrial stress: prevented
  effect on levodopa-induced axonal (terminal) mitochondrial stress: attenuated
  basal mitochondrial stress, monoamine oxidase inhibitor alone: Neither rasagiline nor clorgyline had any effect on basal mitochondrial oxidant stress; also recorded: had no effect on mitochondrial stress
[3]; [7]
  effect on methamphetamine-induced axonal (terminal) mitochondrial stress: prevented
  effect on levodopa-induced axonal (terminal) mitochondrial stress: prevented
[3]
  effect on methamphetamine- and levodopa-induced mitochondrial stress: attenuated

## COC(=O)C1=C(C)NC(C)=C([N+](=O)[O-])C1c1ccccc1C(F)(F)F (stereo not drawn) [Bay K 8644]
[3]; 10 μM drug alone, relative to control (aCSF), dorsolateral striatum slices
  axonal (terminal) mitochondrial stress: increased axonal mitochondrial stress

## CC1=CC(=O)c2ccccc2C1=O [menadione]
[4]
  cyto-roGFP oxidation state: > 200 % above baseline

## [Cl-].[K+] [KCl]
[3]; 15 mM KCl alone
  axonal mitochondrial stress: not significantly altered
[3]; 30 mM KCl perfusion
  axonal mitochondrial stress: increased axonal mitochondrial stress

## N[C@@H](Cc1ccc(O)c(O)c1)C(=O)O [levodopa, L-3,4-dihydroxyphenylalanine]
[5]; 100 μM levodopa vs basal
  axonal mitochondrial stress (mitochondrial matrix roGFP): increased axonal mitochondrial stress
  dendritic mitochondrial stress (mitochondrial matrix roGFP): increased
[5]
  axonal mitochondrial stress in the intermembrane space: increased axonal mitochondrial stress in the intermembrane space
[5]; listed as Levodopa
  axonal mitochondrial stress in the intermembrane space: robustly increased oxidant stress within the intermembrane space
[5]; levodopa
  mitochondrial matrix oxidant stress in human dopaminergic neurons: increased mitochondrial matrix oxidant stress in human dopaminergic neurons in a MAO-dependent manner

## CNC(C)Cc1ccccc1 (stereo not drawn) [methamphetamine, N-methylamphetamine]
[1]; 5 mg/kg methamphetamine ip, 28 consecutive days
  tyrosine hydroxylase expressing neurons (TH+ neurons) in the SNc, stereological quantification: significantly decreased tyrosine hydroxylase (TH) immunoreactivity in the SNc; also recorded: loss of tyrosine hydroxylase expressing neurons
[1]; [8]
  SNc axons in the striatum, optical density measurements: loss of tdTomato fluorescence in both the striatum and SNc neurons; also recorded: loss of SNc axons in the striatum
  labeled (tdTomato) SNc neurons, Dat-Cre X Ai14 mice, stereological quantification: loss of tdTomato fluorescence in both the striatum and SNc neurons
SNc dopaminergic neurons
  pacemaking frequency: attenuated
[2]; 5 mg/kg methamphetamine for 14 days, sacrificed after 14 days withdrawal
  tyrosine hydroxylase positive (TH+) cells: loss of TH+ cells

## C#CCN(C)CCCOc1ccc(Cl)cc1Cl [clorgyline]
[3]; rasagiline 10 μM
  effect on methamphetamine-induced dendritic mitochondrial stress: prevented
  effect on methamphetamine-induced axonal (terminal) mitochondrial stress: attenuated; also recorded: prevented rises in mitochondrial stress
  effect on levodopa-induced dendritic mitochondrial stress: prevented
  effect on levodopa-induced axonal (terminal) mitochondrial stress: attenuated; also recorded: prevented rises in mitochondrial stress
  basal mitochondrial stress, monoamine oxidase inhibitor alone: Neither rasagiline nor clorgyline had any effect on basal mitochondrial oxidant stress; also recorded: had no effect on mitochondrial stress
[3]
  effect on methamphetamine- and levodopa-induced mitochondrial stress: attenuated; also recorded: diminished the mitochondrial redox effects of methamphetamine and levodopa
